From patent US6653313B2, “1,4-dihydropyridine compounds as bradykinin antagonists” (Warner-Lambert Company LLC, priority 2000, dated 2003)
Where a name gives a salt, the structure may show the parent alone.

**Q.** For `COC(=O)C1=C(CCc2ccccc2COCCN2CCCC2)NC(CC(=O)N2CCN(C3CC4CCC(C3)N4C)CC2)=C(C(=O)OC)C1c1c(Cl)cccc1Cl.O=C(O)CCC(=O)O` (stereo not shown), which melting point is on record?
**A.** The melting point was 168 °C (dec.).

**Q.** For `COC(=O)C1=C(CCc2ccccc2NS(C)(=O)=O)NC(CC(=O)N2CCN(C3CC4CCC(C3)N4C)CC2)=C(C(=O)OC)C1c1c(Cl)cccc1Cl` (stereo not shown) (as salt: HCl), which melting point is on record?
**A.** Its melting point is 143 °C.

**Q.** Which melting point does the source give for `COC(=O)C1=C(CCc2ccccc2NS(=O)(=O)C(F)(F)F)NC(CC(=O)N2CCN(C3CC4CCC(C3)N4C)CC2)=C(C(=O)OC)C1c1c(Cl)cccc1Cl` (stereo not shown) (as salt: HCl) here?
**A.** Its melting point is 218 to 220 °C (dec.).

**Q.** Which melting point does the source give for `COC(=O)C1=C(CCc2ccccc2C(=O)N2CCNCC2)NC(CC(=O)N2CCN(C3CC4CCC(C3)N4C)CC2)=C(C(=O)OC)C1c1c(Cl)cccc1Cl` (stereo not shown) (as salt: HCl) here?
**A.** The melting point was 198 to 200 °C (dec.).

**Q.** With `CCN(CC)Cc1ccccc1CCC1=C(C(=O)OC)C(c2c(Cl)cccc2Cl)C(C(=O)OC)=C(CC(=O)N2CCN(C3CC4CCC(C3)N4C)CC2)N1` (stereo not shown) (as salt: HCl) as the compound, how does the melting point read?
**A.** The melting point was 77 to 79 °C (dec.).

**Q.** Which melting point does the source give for `CNC(=O)CCC(=O)NCc1ccccc1CCC1=C(C(=O)OC)C(c2c(Cl)cccc2Cl)C(C(=O)OC)=C(CC(=O)N2CCN(C3CC4CCC(C3)N4C)CC2)N1` (stereo not shown) (as salt: citrate) here?
**A.** Its melting point is 158 to 160 °C (dec.).

**Q.** With `CCNCCOCc1ccccc1CCC1=C(C(=O)OC)C(c2c(Cl)cccc2Cl)C(C(=O)OC)=C(CC(=O)N2CCN(C34CCCC(CC3)N4C)CC2)N1` (stereo not shown) (as salt: citrate) as the compound, how does the melting point read?
**A.** The melting point was 151 °C.
